# Measurements: ChEMBL document CHEMBL1201862, “PubChem BioAssay data set” (2004)
#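 Dose response: 5 concentrations. Exposure: 48 h. Format: 96-well plates. Endpoint: linear interpolation; highest concentration if not reached. The concentration for 50% growth inhibition is given as GI50.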 Active and inactive are the calls of the source. Cut-off read from the data, not from the text of the source: active = GI50 up to about 1.1 µM and inactive = higher.
# Assays:
# Test in all cases: NCI tumour cell line growth inhibition, 48 h
# [1] = test system: OVCAR-4
# [2] = test system: IGROV-1
# [3] = test system: XF498
# [4] = test system: M19-MEL
# [5] = test system: OVCAR-5
# [6] = test system: NCI-H23
# [7] = test system: Malme-3M
# [8] = test system: HOP-18
# [9] = test system: M14
# [10] = test system: HT-29
# [11] = test system: RXF 393
# [12] = test system: SN12C
# [13] = test system: NCI-H460
# [14] = test system: CAKI-1
# [15] = test system: SK-MEL-2
# [16] = test system: LXFL 529
# [17] = test system: U-251
# [18] = test system: NCI-H522
# [19] = test system: A549
# [20] = test system: HOP-62
# [21] = test system: HL-60
# [22] = test system: SF-295
# [23] = test system: SF-539
# [24] = test system: COLO 205
# [25] = test system: UO-31
# [26] = test system: DMS-273
# [27] = test system: KM-20L2
# [28] = test system: UACC-257
# [29] = test system: RPMI-8226
# [30] = test system: SK-MEL-5
# [31] = test system: OVCAR-3
# [32] = test system: K562
# [33] = test system: 786-0
# [34] = test system: LOX IMVI
# [35] = test system: SK-MEL-28
# [36] = test system: HOP-92
# [37] = test system: EKVX
# [38] = test system: SF-268
# [39] = test system: HCT-15
# [40] = test system: SK-OV-3
# [41] = test system: TK-10
# [42] = test system: ACHN
# [43] = test system: SNB-19
# [44] = test system: DMS-114
# [45] = test system: MOLT-4
# [46] = test system: CCRF-CEM
# [47] = test system: UACC-62
# [48] = test system: SNB-75
# [49] = test system: A498
# [50] = test system: OVCAR-8
# [51] = test system: SW-620
# [52] = test system: KM12
# [53] = test system: HCC 2998
# [54] = test system: SNB-78
# [55] = test system: NCI-H226
# [56] = test system: DLD-1
# [57] = test system: HCT-116
compound,measurement,setting,value
O=[N+]([O-])c1ccc(N=P(c2ccccc2)(c2ccccc2)c2ccccc2)n2nnnc12,GI50,[1],31.8 µM (inactive)
same,GI50,[2],> 100 µM (inactive)
same,GI50,[3],32.7 µM (inactive)
same,GI50,[4],82 µM (inactive)
same,GI50,[5],> 100 µM (inactive)
same,GI50,[6],> 100 µM (inactive)
same,GI50,[7],50.8 µM (inactive)
same,GI50,[8],> 100 µM (inactive)
same,GI50,[9],> 100 µM (inactive)
same,GI50,[10],> 100 µM (inactive)
same,GI50,[11],44 µM (inactive)
same,GI50,[12],82.4 µM (inactive)
same,GI50,[13],44.6 µM (inactive)
same,GI50,[14],45.1 µM (inactive)
same,GI50,[15],33.7 µM (inactive)
same,GI50,[16],48.3 µM (inactive)
same,GI50,[17],54.8 µM (inactive)
same,GI50,[18],31 µM (inactive)
same,GI50,[19],40.6 µM (inactive)
same,GI50,[20],25.6 µM (inactive)
same,GI50,[21],36.1 µM (inactive)
same,GI50,[22],29 µM (inactive)
same,GI50,[23],23 µM (inactive)
same,GI50,[24],82 µM (inactive)
same,GI50,[25],78.7 µM (inactive)
same,GI50,[26],> 100 µM (inactive)
same,GI50,[27],> 100 µM (inactive)
same,GI50,[28],85.9 µM (inactive)
same,GI50,[29],35.7 µM (inactive)
same,GI50,[30],67 µM (inactive)
same,GI50,[31],34.5 µM (inactive)
same,GI50,[32],67 µM (inactive)
same,GI50,[33],28.1 µM (inactive)
same,GI50,[34],> 100 µM (inactive)
same,GI50,[35],> 100 µM (inactive)
same,GI50,[36],22.2 µM (inactive)
same,GI50,[37],58.7 µM (inactive)
same,GI50,[38],36.1 µM (inactive)
same,GI50,[39],> 100 µM
same,GI50,[40],46.1 µM (inactive)
same,GI50,[41],> 100 µM (inactive)
same,GI50,[42],43.5 µM (inactive)
same,GI50,[43],33.4 µM (inactive)
same,GI50,[44],72.3 µM (inactive)
same,GI50,[45],77.8 µM (inactive)
same,GI50,[46],68.9 µM (inactive)
same,GI50,[47],37.3 µM (inactive)
same,GI50,[48],21.9 µM (inactive)
same,GI50,[49],> 100 µM (inactive)
same,GI50,[50],31 µM (inactive)
same,GI50,[51],> 100 µM (inactive)
same,GI50,[52],66.4 µM (inactive)
CC(C)NC1CCCCC2c3cc(F)ccc3[C@]12O (some centres not stated),GI50,[1],> 100 µM (inactive)
same,GI50,[2],> 100 µM (inactive)
same,GI50,[4],> 100 µM (inactive)
same,GI50,[5],> 100 µM (inactive)
same,GI50,[6],> 100 µM (inactive)
same,GI50,[7],> 100 µM (inactive)
same,GI50,[8],> 100 µM (inactive)
same,GI50,[9],> 100 µM (inactive)
same,GI50,[10],> 100 µM (inactive)
same,GI50,[11],> 100 µM (inactive)
same,GI50,[53],> 100 µM (inactive)
same,GI50,[12],> 100 µM (inactive)
same,GI50,[13],> 100 µM (inactive)
same,GI50,[14],> 100 µM (inactive)
same,GI50,[15],> 100 µM (inactive)
same,GI50,[16],> 100 µM (inactive)
same,GI50,[17],> 100 µM (inactive)
same,GI50,[18],> 100 µM (inactive)
same,GI50,[19],> 100 µM (inactive)
same,GI50,[20],> 100 µM (inactive)
same,GI50,[21],> 100 µM (inactive)
same,GI50,[22],> 100 µM (inactive)
same,GI50,[23],> 100 µM (inactive)
same,GI50,[24],> 100 µM (inactive)
same,GI50,[25],> 100 µM (inactive)
same,GI50,[26],> 100 µM (inactive)
same,GI50,[54],> 100 µM (inactive)
same,GI50,[27],> 100 µM (inactive)
same,GI50,[28],> 100 µM (inactive)
same,GI50,[29],> 100 µM (inactive)
same,GI50,[30],> 100 µM (inactive)
same,GI50,[31],> 100 µM (inactive)
same,GI50,[55],> 100 µM (inactive)
same,GI50,[32],> 100 µM (inactive)
same,GI50,[33],> 100 µM (inactive)
same,GI50,[34],> 100 µM (inactive)
same,GI50,[35],> 100 µM (inactive)
same,GI50,[37],> 100 µM (inactive)
same,GI50,[38],> 100 µM (inactive)
same,GI50,[56],> 100 µM (inactive)
same,GI50,[39],> 100 µM
same,GI50,[40],> 100 µM (inactive)
same,GI50,[41],> 100 µM (inactive)
same,GI50,[42],> 100 µM (inactive)
same,GI50,[43],> 100 µM (inactive)
same,GI50,[44],> 100 µM (inactive)
same,GI50,[57],> 100 µM (inactive)
same,GI50,[45],> 100 µM (inactive)
same,GI50,[46],> 100 µM (inactive)
same,GI50,[47],> 100 µM (inactive)
same,GI50,[48],> 100 µM (inactive)
same,GI50,[49],> 100 µM (inactive)
same,GI50,[50],> 100 µM (inactive)
same,GI50,[51],> 100 µM (inactive)
same,GI50,[52],> 100 µM (inactive)
